Laboratory results published in patent US11339130B1 (Blade Therapeutics, Inc., priority 2016, dated 2022).
Where two headings read alike, the source gives them in different places.

How the values were obtained:
[1] = tested on: Bleomycin-induced pulmonary fibrosis; experiment: Bleomycin-induced pulmonary fibrosis in mice (14 d); type: in vivo; set-up: concentration or dose not given beside the values
Description: The method for inducing pulmonary fibrosis in mice is described in Current Protocols in Pharmacology: 5.46.1, entitled “Mouse Models of Bleomycin-induced Pulmonary Fibrosis”. In order to induce pulmonary fibrosis, 6-8 week old C57B1/6 mice or Wistar rats are instilled once oropharyngeally with ˜1.5 U/kg of bleomycin sulfate (Calbiochem, Billerica, Mass.). Briefly, for oropharyngeal administration of bleomycin, mice or rats are anesthetized with isofluorane and then suspended on its back at a˜60 degree angle on an inclined surface with a rubber band running under the upper incisors. The airway is opened while securing the tongue with one arm of padded forceps and bleomycin is administered into the back of the oral cavity with a syringe. The animal's tongue and mouth were held open until the liquid disappeared from the oral cavity. The animal was then returned to its cage and monitored until fully recovered from the anesthesia. The study is terminated on day 14-28 for oropharyngeally administered bleomycin in mice and rats. All animals are euthanized at the termination of the studies by cervical dislocation for gross necropsy, and blood collected by cardiac puncture. The lungs from each animal are dissected from the animal and weighed. The BAL cells and fluid are collected by lavaging the lung twice with 0.5 ml Hanks Balanced Salt Solution (HBSS; VWR, Radnor, Pa.). After collection of BAL cells and fluid, lungs are dissected and removed from each animal. Whole lungs are inflated with 10% NBF and then fixed in 10% NBF for histology. Severity of fibrosis in the lungs is evaluated using a modified Ashcroft score (Hubner, Biotechniques, 2008) and subjective fibrosis scores. Lung sections were graded by averaging 5 microscopic fields at 20× on an Ashcroft scale as follows: Grade 0=normal lung; Grade 1=minimally detectable thickening of alveolar walls; Grade 2=Mild thickening of alveolar walls. Grade 3=moderate contiguous thickening of walls with fibrous nodules; Grade 4=Thickened septae and confluent fibrotic masses that total less than 10% of microscopic field. Grade 5=increased fibrosis with definite damage to lung structure and formation of fibrous bands or small fibrous masses between 10 and 50% of microscopic field; Grade 6=Large contiguous fibrotic masses consolidating more than 50% of microscopic field. Grade 7=severe distortion of structure and large fibrous areas; Grade 8=total fibrous obliteration of lung within microscopic field. Each slide was examined at 20× magnification and the score for 5 separate representative fields was averaged for each animal. Subjective scores (H&E and Trichrome-stained slides) were evaluated at 2× magnification for an overall assessment of pathologic change. A score of 0=no detectible findings to 5=complete involvement of consolidation. Scores in each group were averaged and standard error was calculated using Excel 2010. Dense, organized inflammatory exudates were scored as fibrosis. Other tissues were evaluated microscopically and scored routinely.

[2] = tested on: Calpain activity in SH-SY5Y cells; experiment: SH-SY5Y + AMC fluorescence assay (Suc-LLVY-AMC substrate); type: cell-based; details: read-out: SH-SY5Y + AMC IC50
[3] = tested on: Calpain activity in SH-SY5Y cells (SBDP-150); experiment: SH-SY5Y Spectrin western blot assay (SBDP-150 breakdown product, A23187-induced); type: cell-based; details: Homo sapiens, SH-SY5Y cells, read-out: SH-SY5Y Spectrin IC50
Human Calpain 9/NS1 = biological target: T1, Human Calpain 9/NS1 (Homo sapiens, UniProt O14815); experiment: Calpain inhibition continuous fluorescence (FRET) assay, Human Calpain 9/NS1; type: biochemical; details: read-out: Human Calpain 9/NS1 IC50
T1 sequence (O14815 1-690): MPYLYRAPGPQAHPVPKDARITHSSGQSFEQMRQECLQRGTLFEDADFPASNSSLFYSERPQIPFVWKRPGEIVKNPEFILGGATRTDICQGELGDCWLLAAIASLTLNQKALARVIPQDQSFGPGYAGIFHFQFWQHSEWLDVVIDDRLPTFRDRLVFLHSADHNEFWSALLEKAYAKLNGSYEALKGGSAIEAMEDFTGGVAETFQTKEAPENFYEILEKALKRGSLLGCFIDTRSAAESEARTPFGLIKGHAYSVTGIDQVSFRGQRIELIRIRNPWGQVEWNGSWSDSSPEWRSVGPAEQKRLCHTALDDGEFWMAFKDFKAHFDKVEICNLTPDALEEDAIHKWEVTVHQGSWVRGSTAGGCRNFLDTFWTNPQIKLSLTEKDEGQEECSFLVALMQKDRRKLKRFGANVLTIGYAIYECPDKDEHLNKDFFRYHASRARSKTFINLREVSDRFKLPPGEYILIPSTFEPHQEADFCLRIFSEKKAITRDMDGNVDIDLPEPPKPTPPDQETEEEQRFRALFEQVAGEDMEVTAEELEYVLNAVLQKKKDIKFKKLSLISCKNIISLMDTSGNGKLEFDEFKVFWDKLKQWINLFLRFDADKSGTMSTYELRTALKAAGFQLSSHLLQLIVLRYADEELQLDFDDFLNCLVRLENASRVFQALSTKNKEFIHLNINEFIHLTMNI
T1 sequence (P04632 1-268 partner): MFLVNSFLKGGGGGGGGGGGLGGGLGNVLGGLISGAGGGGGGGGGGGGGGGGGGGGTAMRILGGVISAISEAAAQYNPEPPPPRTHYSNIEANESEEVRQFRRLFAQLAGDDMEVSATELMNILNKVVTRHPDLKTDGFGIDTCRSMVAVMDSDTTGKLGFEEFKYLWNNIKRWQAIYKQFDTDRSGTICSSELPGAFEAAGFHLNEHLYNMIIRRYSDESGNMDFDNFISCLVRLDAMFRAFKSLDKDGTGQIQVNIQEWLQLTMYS
In short: (§1)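 Buffer 50 mM Tris pH 7.5/100 mM NaCl/1 mM DTT; enzyme + cpd preinc 25C; start w/ FRET substrate + CaCl2; kinetic 490/520 nm, 10 min; slopes 1-5 min; 4-PL IC50.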

Human Calpain 2/NS1 = biological target: T2, Human Calpain 2/NS1 (Homo sapiens, UniProt P17655); experiment: Calpain inhibition continuous fluorescence (FRET) assay, Human Calpain 2/NS1; type: biochemical; details: read-out: Human Calpain 2/NS1 IC50
T2 sequence (P17655 1-700): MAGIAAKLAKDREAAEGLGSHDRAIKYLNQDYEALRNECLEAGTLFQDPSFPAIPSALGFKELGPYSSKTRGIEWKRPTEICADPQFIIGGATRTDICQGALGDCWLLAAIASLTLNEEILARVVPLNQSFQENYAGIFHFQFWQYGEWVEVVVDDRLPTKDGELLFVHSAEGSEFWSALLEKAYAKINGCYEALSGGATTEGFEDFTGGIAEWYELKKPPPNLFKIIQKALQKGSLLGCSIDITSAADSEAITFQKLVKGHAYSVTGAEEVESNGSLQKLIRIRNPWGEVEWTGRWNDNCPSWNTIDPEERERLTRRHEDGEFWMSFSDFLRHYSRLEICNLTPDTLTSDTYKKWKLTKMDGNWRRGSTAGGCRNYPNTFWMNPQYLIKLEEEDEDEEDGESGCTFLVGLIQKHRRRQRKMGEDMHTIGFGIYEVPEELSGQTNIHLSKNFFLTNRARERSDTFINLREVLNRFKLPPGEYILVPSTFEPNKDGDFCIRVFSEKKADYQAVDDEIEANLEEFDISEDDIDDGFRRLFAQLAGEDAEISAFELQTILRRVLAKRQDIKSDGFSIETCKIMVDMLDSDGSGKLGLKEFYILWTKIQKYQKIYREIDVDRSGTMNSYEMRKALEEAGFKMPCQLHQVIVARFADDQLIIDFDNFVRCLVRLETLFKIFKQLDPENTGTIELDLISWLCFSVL
T2 sequence (P04632 1-268 partner): T1 sequence (P04632 1-268 partner)
In short: as §1

Human Calpain 1/NS1 = biological target: T3, Human Calpain 1/NS1 (Homo sapiens, UniProt P07384); experiment: Calpain inhibition continuous fluorescence (FRET) assay, Human Calpain 1/NS1; type: biochemical; details: read-out: Human Calpain 1/NS1 IC50
T3 sequence (P07384 1-714): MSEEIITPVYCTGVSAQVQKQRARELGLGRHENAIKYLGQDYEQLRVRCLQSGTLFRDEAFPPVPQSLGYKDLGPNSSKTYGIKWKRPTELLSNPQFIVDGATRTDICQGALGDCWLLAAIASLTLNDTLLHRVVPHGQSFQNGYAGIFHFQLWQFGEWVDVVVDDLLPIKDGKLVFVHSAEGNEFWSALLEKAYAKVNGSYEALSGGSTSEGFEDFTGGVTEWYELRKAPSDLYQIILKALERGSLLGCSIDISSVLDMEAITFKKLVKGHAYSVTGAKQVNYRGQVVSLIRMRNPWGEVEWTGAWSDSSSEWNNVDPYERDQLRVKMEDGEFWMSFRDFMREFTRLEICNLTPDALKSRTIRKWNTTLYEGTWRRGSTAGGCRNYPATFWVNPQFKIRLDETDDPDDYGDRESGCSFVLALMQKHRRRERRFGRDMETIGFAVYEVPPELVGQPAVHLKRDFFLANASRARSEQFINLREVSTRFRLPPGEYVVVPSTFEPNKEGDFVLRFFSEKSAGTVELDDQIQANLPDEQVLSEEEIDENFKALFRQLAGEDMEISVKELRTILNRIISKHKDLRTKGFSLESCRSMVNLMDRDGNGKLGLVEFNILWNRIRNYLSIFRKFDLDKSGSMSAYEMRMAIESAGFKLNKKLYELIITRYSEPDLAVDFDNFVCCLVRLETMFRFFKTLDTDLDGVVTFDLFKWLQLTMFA
T3 sequence (P04632 1-268 partner): T1 sequence (P04632 1-268 partner)
In short: as §1

[4] = A23187-induced SBDP-150, western blot

Compound	% reduction compared to vehicle [1] [%]	IC50 ([2]; Column E) [µM]	IC50 ([3]; Column D, A23187-induced SBDP-150) [µM]	IC50 (Human Calpain 9/NS1; Column C) [µM]	IC50 (Human Calpain 2/NS1; Column B) [µM]	IC50 (Human Calpain 1/NS1; Column A) [µM]	IC50 [2] [µM]	IC50 [3, 4] [µM]	IC50 (Human Calpain 9/NS1) [µM]	IC50 (Human Calpain 2/NS1) [µM]	IC50 (Human Calpain 1/NS1) [µM]
Cc1ccc(=O)n(-c2ccccc2)c1 [pirfenidone, reference compound]	−14	–	–	–	–	–	–	–	–	–	–
Cc1cc(C(=O)N[C@@H](Cc2ccccc2)C(=O)C(N)=O)n(-c2ncc(-c3ccccc3)s2)n1 [Compound 113, (S)—N-(4-amino-3,4-dioxo-1-phenylbutan-2-yl)-3-methyl-1-(5-phenylthiazol-2-yl)-1H-pyrazole-5-carboxamide]	–	> 25	< 10	< 3	< 3	< 3	–	–	–	–	–
Cn1cc(C(=O)NC(Cc2ccccc2)C(=O)C(N)=O)c(-c2cccc3cnccc23)n1 (stereo not drawn) [Compound 607, N-(4-amino-3,4-dioxo-1-phenylbutan-2-yl)-3-(isoquinolin-5-yl)-1-methyl-1H-pyrazole-4-carboxamide]	–	–	–	–	–	–	> 25	10 to 25	< 3	< 3	< 3
NC(=O)C(=O)C(Cc1ccccc1)NC(=O)c1cn(C(F)F)nc1-c1ccccc1F (stereo not drawn) [Compound 383, N-(4-amino-3,4-dioxo-1-phenylbutan-2-yl)-1-(difluoromethyl)-3-(2-fluorophenyl)-1H-pyrazole-4-carboxamide]	–	–	–	–	–	–	< 10	< 10	< 3	< 3	< 3
Cc1cc(C(=O)N[C@H](C=O)Cc2ccccc2)n(-c2ncccn2)n1 [Compound 341, (S)-3-methyl-N-(1-oxo-3-phenylpropan-2-yl)-1-(pyrimidin-2-yl)-1H-pyrazole-5-carboxamide]	–	–	–	–	–	–	10 to 25	> 25	3 to 10	< 3	< 3
Cc1nc(-c2ccccc2F)c(C(=O)N[C@H](Cc2ccccc2)C(=O)C(N)=O)o1 [Compound 592, (R)—N-(4-amino-3,4-dioxo-1-phenylbutan-2-yl)-4-(2-fluorophenyl)-2-methyloxazole-5-carboxamide]	–	–	–	–	–	–	< 10	10 to 25	< 3	< 3	< 3
NC(=O)C(=O)C(Cc1ccccc1)NC(=O)c1oc(C2CC2)nc1-c1ccccc1 (stereo not drawn) [Compound 393, N-(4-amino-3,4-dioxo-1-phenylbutan-2-yl)-2-cyclopropyl-4-phenyloxazole-5-carboxamide]	–	–	–	–	–	–	< 10	10 to 25	< 3	< 3	< 3
NC(=O)C(=O)C(Cc1ccccc1)NC(=O)c1cn(C(F)F)nc1-c1ccc2cccnc2c1 (stereo not drawn) [Compound 575, N-(4-amino-3,4-dioxo-1-phenylbutan-2-yl)-1-(difluoromethyl)-3-(quinolin-7-yl)-1H-pyrazole-4-carboxamide]	–	–	–	–	–	–	> 25	< 10	< 3	< 3	< 3
NC(=O)C(=O)C(Cc1ccccc1)NC(=O)c1cc(Cl)nn1-c1ncccn1 (stereo not drawn) [Compound 350, N-(4-amino-3,4-dioxo-1-phenylbutan-2-yl)-3-chloro-1-(pyrimidin-2-yl)-1H-pyrazole-5-carb oxamide]	–	–	–	–	–	–	< 10	10 to 25	< 3	< 3	< 3
NC(=O)C(=O)C(Cc1ccccc1)NC(=O)c1nsnc1-c1cnccn1 (stereo not drawn) [Compound 365, N-(4-amino-3,4-dioxo-1-phenylbutan-2-yl)-4-(pyrazin-2-yl)-1,2,5-thiadiazole-3-carboxamide]	–	–	–	–	–	–	< 10	< 10	< 3	< 3	< 3
NC(=O)C(=O)C(Cc1ccccc1)NC(=O)c1cn(C(F)F)nc1-c1ccc2ccccc2c1 (stereo not drawn) [Compound 551, N-(4-amino-3,4-dioxo-1-phenylbutan-2-yl)-1-(difluoromethyl)-3-(naphthalen-2-yl)-1H-pyrazole-4-carboxamide]	–	–	–	–	–	–	> 25	10 to 25	< 3	< 3	< 3
